System: toxins

With `Nc1cccc2c(=O)[nH][nH]c(=O)c12` the “time to therapeutic effect” value (after administration, acute phase) was “twenty to thirty” and the “injections sufficient for complete elimination of pathological indications” value (within a one-day period) was “one or two”.

From patent publication US5543410A, “Pharmacological use of phthaloylhydrazide derivatives; combination and application thereof” (L.I.M.A.D. Limited, priority 1993, dated 1996)
